{"source": "patent US9303045B2", "about": "“5-HT3 receptor antagonists” (Takeda Pharmaceutical Company Limited, priority 2013, dated 2016)", "note": "Where a name gives a salt, the structure may show the parent alone."}
{"target": "5HT3a receptor expressed in HEK-293T cells (Homo sapiens (Human), UniProt P46098)", "sequence (P46098 24-478)": "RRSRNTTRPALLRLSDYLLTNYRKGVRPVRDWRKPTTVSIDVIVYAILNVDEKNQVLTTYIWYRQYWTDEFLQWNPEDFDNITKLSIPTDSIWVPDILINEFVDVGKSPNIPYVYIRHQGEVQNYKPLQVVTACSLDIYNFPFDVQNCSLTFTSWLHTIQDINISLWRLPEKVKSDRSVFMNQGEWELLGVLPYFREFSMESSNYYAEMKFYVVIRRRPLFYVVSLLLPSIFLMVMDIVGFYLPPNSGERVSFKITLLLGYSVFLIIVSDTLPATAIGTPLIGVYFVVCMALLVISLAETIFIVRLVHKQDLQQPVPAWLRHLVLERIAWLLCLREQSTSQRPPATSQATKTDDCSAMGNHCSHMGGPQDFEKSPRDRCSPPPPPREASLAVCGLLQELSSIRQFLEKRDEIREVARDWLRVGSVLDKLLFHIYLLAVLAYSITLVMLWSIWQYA", "experiment": "Inhibition of Ca flux activity of 5HT3 in vitro assay", "format": "cell-based", "details": "calcium flux, 5HT 216 nM, approximate values", "protocol": "Inhibition of Ca Flux Activity of 5HT3 In Vitro Assay\nThe 5HT3 antagonist activity of the compounds of the invention was determined by measuring the ability of the compounds to inhibit the calcium flux activity of […] receptor expressed in HEK-293T cells. HEK-293T cells were transfected with the 5HT3a expression construct using Xtreme Gene 9 (Roche) in 150 mm tissue culture treated plates and incubated for 24 hours at 37° C. Cells were then split and plated at a density of 60K cells/well in poly-lysine coated, black 96-well plates with clear bottoms (BD BioSciences) and incubated overnight at 37° C. Growth media was removed and cells loaded with 200 uL calcium indicator dye in HBSS containing 20 mM HEPES (Calcium 5 Assay kit, Molecular Devices) and incubated at 37° C. for 1 hour. While cells were incubating, the 10× antagonist and agonist/antagonist addition plates were made. For 10× antagonist plate: half log serial dilutions (final concentrations range from 10^−7 through 10^−10 with the bottom well a negative, no ligand control) were made from test compounds in DMSO at a 1000× concentration and then diluted to 10× in HBSS/20 mM HEPES. For addition plate: 5HT was diluted to 100× in HBSS/20 mM HEPES (final concentration in the assay—216 nM) and 15 uL was added to each well of the addition plate, 15 uL of 10× compound was also added to the addition plate, and finally 120 uL of HBSS/20 mM HEPES (for a total of 150 uL). Cells were then removed from the incubator and equilibrated to room temperature for 10 minutes, then 22.5 uL of 10× test compounds were added in triplicate to the plates and incubated at room temperature for 10 minutes (Tropisetron was used as a positive control in every assay). Test plate and addition plate were loaded into the FlexStation III (Molecular Devices), and using the fluidics, 22.5 uL compound additions were made (at t=˜17 seconds), and fluorescence was measured for 90 seconds, reading every 2.2 seconds. Data sets were analyzed as max minus min using Software Max Pro (Molecular Devices). IC50 curves were generated using non-linear regression in GraphPad Prism.", "units": {"IC50": "nM"}}
{"compound": "CN1C2CCC1CC(NC(=O)c1nn(S(C)(=O)=O)c3ccccc13)C2", "note": "[Example 62, N-((1R,3R,5S)-8-methyl-8-azabicyclo[3.2.1]octan-3-yl)-1-(methylsulfonyl)-1H-indazole-3-carboxamide, 2,2,2-trifluoroacetate]", "IC50": 0.75}
{"compound": "(1R,5S,7s)-3-oxa-9- azabicyclo[3.3.1]nonan- 7-yl 1-(isothiazol-3-yl)- 1H-indole-3- carboxamide, 2,2,2- trifluoroacetic acid salt [Example 145]", "IC50": 2.71}
{"compound": "CS(=O)(=O)n1cc(C(=O)OC23CCN(CC2)CC3)c2cc(F)ccc21", "note": "[Example 37, quinuclidin-4-yl 5-fluoro-1-(methylsulfonyl)-1H-indole-3-carboxylate, 2,2,2-trifluoroacetate]", "IC50": "> 1000"}
{"compound": "(1R,3R,5S)-8-methyl-8-azabicyclo[3.2.1]octan-3-yl 2-chloro-1-(2,2-difluoroethyl)-1H-indole-3-carboxylate 2,2,2-trifluoroacetate [Example 4]", "IC50": 1.4}
{"compound": "CC(C)CS(=O)(=O)n1cc(C(=O)OC2C[C@H]3COC[C@@H](C2)N3)c2ccccc21", "note": "(stereo partly drawn) [Example 135, (1R,5S,7S)-3-oxa-9-azabicyclo[3.3.1]nonan-7-yl 1-(isobutylsulfonyl)-1H-indole-3-carboxylate, 2,2,2-trifluoroacetate]", "IC50": 11.7}
{"compound": "CN1[C@@H]2COC[C@H]1CC(NC(=O)c1cn(-c3cnccn3)c3ccccc13)C2", "note": "(stereo partly drawn) [Example 130, N-((1R,5S,7S)-9-methyl-d3-3-oxa-9-azabicyclo[3.3.1]nonan-7-yl)-1-(pyrazin-2-yl)-1H-indole-3-carboxamide]", "IC50": 0.55}
{"compound": "O=C(NC1CC2COCC(C1)N2C(F)(F)F)c1cn(CC(F)F)c2ncccc12", "note": "[Example 104, 1-(2,2-difluoroethyl)-N-((1R,5S,7S)-9-(trifluoromethyl)-3-oxa-9-azabicyclo[3.3.1]nonan-7-yl)-1H-pyrrolo[2,3-b]pyridine-3-carboxamide, 2,2,2-trifluoroacetate]", "IC50": "> 1000"}
{"compound": "N#Cc1ccccc1-n1cc(C(=O)O[C@H]2C[C@H]3COC[C@@H](C2)N3)c2ccccc21", "note": "[Example 171, (1R,5S,7s)-3-oxa-9-azabicyclo[3.3.1]nonan-7-yl 1-(2-cyanophenyl)-1H-indole-3-carboxylate, 2,2,2-trifluoroacetic acid salt]", "IC50": 1.11}
{"compound": "CN1C2COCC1CC(NC(=O)c1cn(CCF)c3ccccc13)C2", "note": "[Example 79, 1-(2-fluoroethyl)-N-((1R,5S,7S)-9-methyl-3-oxa-9-azabicyclo-[3.3.1]nonan-7-yl)-1H-indole-3-carboxamide, 2,2,2-trifluoroacetate]", "IC50": 0.41}
{"compound": "CN1C2COCC1CC(NC(=O)c1cn(-c3ccns3)c3ccccc13)C2", "note": "[Example 158, 1-(isothiazol-5-yl)-N-((1R,5S,7s)-9-methyl-3-oxa-9-azabicyclo[3.3.1]nonan-7-yl)-1H-indole-3-carboxamide, 2,2,2-trifluoroacetic acid salt]", "IC50": 1.36}
{"compound": "CN1[C@@H]2CC[C@H]1CC(OC(=O)c1c(Cl)n(CCF)c3ccccc13)C2", "note": "(stereo partly drawn) [Example 55, (1R,3R,5S)-8-methyl-8-azabicyclo[3.2.1]octan-3-yl 2-chloro-1-(2-fluoroethyl)-1H-indole-3-carboxylate, 2,2,2-trifluoroacetate]", "IC50": 0.9}
{"compound": "CN1C2CCC1CC(OC(=O)c1cn([C@H]3CCOC3)c3ccccc13)C2", "note": "(stereo partly drawn) [Example 96, (1R,3R,5S)-8-methyl-8-azabicyclo[3.2.1]octan-3-yl 1-((S)-tetrahydrofuran-3-yl)-1H-indole-3-carboxylate, 2,2,2-trifluoroacetate]", "IC50": 0.83}
{"compound": "CN(C(=O)c1cn(-c2cnsc2)c2ccccc12)C1C[C@H]2COC[C@@H](C1)N2C", "note": "(stereo partly drawn) [Example 186, 1-(isothiazol-4-yl)-N-methyl-N-((1R,5S,7S)-9-methyl-3-oxa-9-azabicyclo[3.3.1]nonan-7-yl)-1H-indole-3-carboxamide]", "IC50": 1.5}
{"compound": "CN1[C@@H]2CC[C@H]1CC(OC(=O)c1c3n(c4ccccc14)CCCCO3)C2", "note": "(stereo partly drawn) [Example 84, (1R,3R,5S)-8-methyl-8-azabicyclo[3.2.1]octan-3-yl 2,3,4,5-tetrahydro-[1,3]oxazepino[3,2-a]indole-11-carboxylate, 2,2,2-trifluoroacetate]", "IC50": 1.64}
{"compound": "CN1[C@@H]2CC[C@H]1CC(OC(=O)c1cn(S(C)(=O)=O)c3ccc(F)cc13)C2", "note": "(stereo partly drawn) [Example 86, (1R,3R,5S)-8-methyl-8-azabicyclo[3.2.1]octan-3-yl 5-fluoro-1-(methylsulfonyl)-1H-indole-3-carboxylate, 2,2,2-trifluoroacetate]", "IC50": 2.48}
{"compound": "CS(=O)(=O)n1cc(C(=O)NC2C[C@H]3COC[C@@H](C2)N3)c2cc(F)ccc21", "note": "(stereo partly drawn) [Example 78, N-((1R,5S,7S)-3-oxa-9-azabicyclo[3.3.1]nonan-7-yl)-5-fluoro-1-(methylsulfonyl)-1H-indole-3-carboxamide, 2,2,2-trifluoroacetate]", "IC50": 4.81}
{"compound": "CN1[C@@H]2COC[C@H]1CC(NC(=O)c1cn(CCF)c3ccccc13)C2", "note": "(stereo partly drawn) [Example 127, 1-(2-fluoroethyl)-N-((1R,5S,7S)-9-methyl-d3-3-oxa-9-azabicyclo[3.3.1]nonan-7-yl)-1H-indole-3-carboxamide, 2,2,2-trifluoroacetate]", "IC50": 0.22}
{"compound": "(1R,5S,7s)-9-methyl-3-oxa-9-azabicyclo[3.3.1]nonan-7-yl 1-(6-fluoropyridazin-3-yl)-1H-indole-3-carboxylate [Example 25]", "IC50": 3.88}
{"compound": "CN1[C@@H]2CC[C@H]1CC(OC(=O)c1c(Cl)n(CC(F)(F)F)c3ccccc13)C2", "note": "(stereo partly drawn) [Example 44, (1R,3R,5S)-8-methyl-8-azabicyclo[3.2.1]octan-3-yl 2-chloro-1-(2,2,2-trifluoroethyl)-1H-indole-3-carboxylate, 2,2,2-trifluoroacetate]", "IC50": 1.87}
{"compound": "CN1[C@@H]2CCC[C@H]1CC(OC(=O)c1cn(CC(F)(F)F)c3ncccc13)C2", "note": "(stereo partly drawn) [Example 103, (1R,3R,5S)-9-methyl-9-azabicyclo[3.3.1]nonan-3-yl 1-(2,2,2-trifluoroethyl)-1H-pyrrolo[2,3-b]pyridine-3-carboxylate, 2,2,2-trifluoroacetate]", "IC50": 8.2}
{"compound": "CN1[C@@H]2CCC[C@H]1CC(OC(=O)c1cn(CC(F)F)c3ccc(F)cc13)C2", "note": "(stereo partly drawn) [Example 60, (1R,3R,5S)-9-methyl-9-azabicyclo[3.3.1]nonan-3-yl 1-(2,2-difluoroethyl)-5-fluoro-1H-indole-3-carboxylate, 2,2,2-trifluoroacetate]", "IC50": 0.44}
{"compound": "N-((1R,5S,7S)-3-oxa-9-azabicyclo[3.3.1]nonan-7-yl)-5-fluoro-1-(2,2,2-trifluoroethyl)-1H-indole-3-carboxamide 2,2,2-trifluoroacetic acid [Example 16]", "IC50": 3.25}
{"compound": "CN1[C@@H]2COC[C@H]1CC(NC(=O)c1cn(CC(F)(F)F)c3ccc(F)cc13)C2", "note": "(stereo partly drawn) [Example 112, 1-(2,2,2-trifluoroethyl)-5-fluoro-N-((1R,5S,7S)-9-methyl-d3-3-oxa-9-azabicyclo[3.3.1]nonan-7-yl)-1H-indole-3-carboxamide, 2,2,2-trifluoroacetate]", "IC50": 0.53}
{"compound": "CN1[C@@H]2COC[C@H]1C[C@@H](NC(=O)c1cn(-c3cnsc3)c3ccccc13)C2", "note": "[Example 144, 1-(isothiazol-4-yl)-N-((1R,5S,7s)-9-methyl-3-oxa-9-azabicyclo[3.3.1]nonan-7-yl)-1H-indole-3-carboxamide, 2,2,2-trifluoroacetic acid salt]", "IC50": 0.61}
{"compound": "CN1[C@@H]2COC[C@H]1CC(NC(=O)c1nn(CC(F)(F)F)c3ccccc13)C2", "note": "(stereo partly drawn) [Example 126, N-((1R,5S,7S)-9-methyl-d3-3-oxa-9-azabicyclo[3.3.1]nonan-7-yl)-1-(2,2,2-trifluoroethyl)-1H-indazole-3-carboxamide, 2,2,2-trifluoroacetate]", "IC50": 0.86}
{"compound": "CN1[C@@H]2COC[C@H]1CC(NC(=O)c1cn(CC(F)(F)F)c3ncc(F)cc13)C2", "note": "(stereo partly drawn) [Example 52, 5-fluoro-N-((1R,5S,7S)-9-methyl-3-oxa-9-azabicyclo[3.3.1]-nonan-7-yl)-1-(2,2,2-trifluoroethyl)-1H-pyrrolo[2,3-b]pyridine-3-carboxamide, 2,2,2-trifluoroacetate]", "IC50": 1.05}
{"compound": "CN1[C@@H]2COC[C@H]1CC(NC(=O)c1cn(CC(F)F)c3ncc(F)cc13)C2", "note": "(stereo partly drawn) [Example 109, 1(2,2-difluoroethyl)-5-fluoro-N-((1R,5S,7S)-9-methyl-d3-3-oxa-9-azabicyclo[3.3.1]nonan-7-yl)-1H-pyrrolo[2,3-b]pyridine-3-carboxamide]", "IC50": 1.11}
{"compound": "(1R,3R,5S)-8-methyl-8-azabicyclo[3.2.1]octan-3-yl 1-(2,2-difluoroethyl)-1H-pyrrolo[2,3-b]pyridine-3-carboxylate 2,2,2-trifluoroacetate [Example 1]", "IC50": 2.13}
